Assay results taken from publication PMC11847541, “Liver fatty acid binding protein FABP1 transfers substrates to cytochrome P450 4A11 for catalysis” (The Journal of Biological Chemistry, 2025).

Target: T1, P450 4A11 (Homo sapiens, UniProt Q02928)
T1 sequence (Q02928 5-519): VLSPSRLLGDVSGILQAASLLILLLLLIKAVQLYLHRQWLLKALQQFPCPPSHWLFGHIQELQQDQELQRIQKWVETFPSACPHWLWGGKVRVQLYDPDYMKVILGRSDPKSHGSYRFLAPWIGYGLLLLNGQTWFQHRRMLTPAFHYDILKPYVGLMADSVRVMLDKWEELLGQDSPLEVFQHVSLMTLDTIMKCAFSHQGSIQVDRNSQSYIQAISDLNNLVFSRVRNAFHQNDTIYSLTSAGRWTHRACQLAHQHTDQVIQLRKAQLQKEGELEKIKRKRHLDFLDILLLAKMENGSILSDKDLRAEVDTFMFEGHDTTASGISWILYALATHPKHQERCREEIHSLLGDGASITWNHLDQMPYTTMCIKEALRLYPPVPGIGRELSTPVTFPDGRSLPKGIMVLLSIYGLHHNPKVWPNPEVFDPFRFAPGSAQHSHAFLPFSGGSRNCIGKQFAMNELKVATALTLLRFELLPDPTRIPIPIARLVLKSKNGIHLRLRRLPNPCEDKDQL
Format: biochemical
Set-up: made in house; host or cells: E. coli
Description: To differentiate between the two possible roles of FABP1 in P450 catalysis (competitive binder versus direct transfer, Fig. 2), two catalytic experiments testing palmitate oxidation were designed: one in which the FABP1 concentration was varied with a fixed concentration of palmitate (Fig. 12A) and another performed vice versa (Fig. 12B).
Dashed lines are the predicted kinetic data from the free ligand model (blue) and the direct transfer model (red) using the experimentally determined rate constants (Table 1, Fig. 2). A reaction performed without the addition of FABP1 (open circles) was also fit to a modeled curve (black dashed line), which utilizes only the rate constants determined for P450 4A11. Error bars reflect standard deviation of two replicate values, that is, range (if not visible, the deviation is too small to be represented). FABP1, fatty acid binding protein.
Potassium phosphate buffer (100 mM, pH 7.4), DTT (1 mM, added as described earlier ([44], [56])), and [1-^14C]-palmitate (5 μM, 20 mCi/mmol [added from a 1 mM stock in C2H5OH]) were added, and the mixture was split between vials. Just prior to the reaction preincubation, FABP1 (0–5 μM) was added (diluted so the same volume of FABP1 stock solutions were added to each sample). The mixtures were preincubated (5 min, 37 °C), and P450 4A11 activity was initiated with an NADPH-regenerating system ([78]), the addition of which brought reactions to their final volume (0.5 ml). Reactions (5 min) were quenched via the addition of CH2Cl2 (5 ml), were mixed with a vortex device, and were placed on ice. After the completion of the time course, the samples were centrifuged (1000g, 5 min, 23 °C) to separate layers, the organic layer (4 ml) was transferred to fresh vials, and the solvent was removed under a stream of N2. […] The column eluate was mixed (1:2, v/v) with FlowLogic U scintillation cocktail (LabLogic), and radioactivity (^14C) was detected using a β-RAM Model 5 radioflow detector (IN/US; LabLogic). Product was quantitated on the basis of its ^14C peak area relative to the summed radioactivity of the substrate and product.
To determine the reaction rate versus palmitate concentration, a similar reconstitution premixture was prepared with the modification that FABP1 (5 μM) was used instead of palmitate, and the concentrations of P450 4A11 and NADPH–P450 reductase were increased to 0.3 μM and 0.6 μM, respectively. […] The residue was dissolved in 50 μl C2H5OH, transferred to autosampler vials, and analyzed on LC–MS as described earlier (see “Quantitation of ligand-bound FABP1”) but set to operate in the negative-ion mode with the gradient mobile phase modified to (all % v/v: 0 min, 65% B; 0.5 min, 65% B; 5 min, 100% B; 7.5 min, 100% B; 7.6 min, 65% B; 9 min, 65% B). […]

Molecule | maximal observed rate of reaction (- cytochrome b5) | kcat estimate (- cytochrome b5, P450 4A11 0.05 µM) | maximum measurable rate of reaction (k2) (palmitate oxidation, without cytochrome b5, did not saturate) | reduction of enzyme activity
CCCCCCCCCCCCCCCC(=O)O [Palmitate (C16), palmitate] | 12 ± 1 min⁻¹ | 29 ± 3 min⁻¹ | 0.2 s⁻¹ | 
FABP1: delipidated recombinant liver fatty acid binding protein with C-terminal hexahistidine tag |  |  |  | ≤ 50%
